Assay results: patent US20220378923A1, “BET DEGRADER” (KYOWA KIRIN CO., LTD., priority 2019, published 2022)
Where two headings read alike, the source gives them in different places.

Legend:
SU-DHL-4 cells = assay: Inhibitory effect on cell viability in SU-DHL-4 cell line (Test Example 1); assay type: cell-based, human; details: 72 hours; for IC50: SU-DHL-4 (wild type) cells, calculated using the measurement results of test example 1, read-out: SU-DHL-4 WT IC50; for IC90: SU-DHL-4 cells, Cell Counting Kit-8, concentration showing 90% inhibition of cell viability, read-out: SU-DHL-4 Cell Viability Inhibition Rate IC90
Summary of the method: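 SU-DHL-4 cells were grown at 37° C. under 5% CO2 in RPMI1640 with 10 vol % heat-inactivated FBS plus penicillin/streptomycin, seeded and precultured for 18 to 25 hours, then exposed to test compound at 0.1 vol % DMSO for 72 hours. Viability was read with Cell Counting Kit-8 by absorbance at 450 nm.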

DCAF16 KO SU-DHL-4 cells = assay: Inhibitory effect on cell viability using SU-DHL-4 DCAF16 knock out (KO) cell line (Test Example 6); assay type: cell-based, human; details: for Activity Attenuation Ratio: (SU-DHL-4 DCAF16 KO IC50)/(SU-DHL-4 WT IC50); for IC50: DCAF16 KO SU-DHL-4 cells, 72 hours, Cell Counting Kit-8, 50% inhibition of cell viability
Summary of the method: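 SU-DHL-4 DLBCL cells carrying lentiviral Cas9 plus DCAF16-targeting sgRNA (three KO strains; non-targeting control strain), seeded 2000 cells/well, pre-cultured 18–25 h, then given 9-step compound dilutions (0.1% DMSO final) for 72 h at 37° C. Viability read by CCK-8 colorimetric assay.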

SMILES | IC50 (SU-DHL-4 cells; Homo sapiens) [nM] | IC50 (DCAF16 KO SU-DHL-4 cells; Homo sapiens) [nM] | IC50 (SU-DHL-4 cells) [nM] | IC90 (SU-DHL-4 cells) [nM] | IC50 (DCAF16 KO SU-DHL-4 cells) [nM] | Activity Attenuation Ratio (DCAF16 KO SU-DHL-4 cells)
CCC(=O)N1c2ccccc2[C@H](Nc2ccc(C(=O)NCCNS(=O)(=O)c3ccc(N[C@@H]4C[C@H](C)N(C(=O)CC)c5ccccc54)cc3)cc2)C[C@@H]1C [Compound 4d, 4-{[(2S,4R)-2-Methyl-1-propionyl-1,2,3,4-tetrahydroquinolin-4-yl]amino}-N-{2-[(4-{[(2S,4R)-2-methyl-1-propionyl-1,2,3,4-tetrahydroquinolin-4-yl]amino}phenyl)sulfonamide]ethyl}benzamide] |  |  | 4.18 | 13 | 1530 | 365
CCC(=O)N1c2ccccc2[C@H](Nc2ccc(NC(=O)CNCC(=O)Nc3ccc(N[C@@H]4C[C@H](C)N(C(=O)CC)c5ccccc54)cc3)cc2)C[C@@H]1C [Compound 5d, 2,2′-Azanediylbis(N-(4-(((2S,4R)-2-methyl-1-propionyl-1,2,3,4-tetrahydroquinolin-4-yl)amino)phenyl)acetamide)] | 0.31 | 167 |  |  |  | 546
CCC(=O)N1c2ccccc2[C@H](Nc2ccc(CNCc3cn(-c4ccc(N[C@@H]5C[C@H](C)N(C(=O)CC)c6ccccc65)cc4)nn3)cc2)C[C@@H]1C [Compound 5h, 1-((2S,4R)-2-Methyl-4-((4-((((1-(4-(((2S,4R)-2-methyl-1-propionyl-1,2,3,4-tetrahydroquinolin-4-yl)amino)phenyl)-1H-1,2,3-triazol-4-yl)methyl)amino)methyl)phenyl)amino)-3,4-dihydroquinolin-1(2H)-yl)propan-1-one] | 0.06 | 58.4 |  |  |  | 942
CCC(=O)N1c2ccccc2[C@H](Nc2ccc(Cc3cnc4n3CCN(C(=O)c3ccc(N[C@@H]5C[C@H](C)N(C(=O)CC)c6ccccc65)cc3)C4)cc2)C[C@@H]1C [Compound 5q, 1-((2S,4R)-2-Methyl-4-((4-((7-(4-(((2S,4R)-2-methyl-1-propionyl-1,2,3,4-tetrahydroquinolin-4-yl)amino)benzoyl)-5,6,7,8-tetrahydroimidazo[1,2-a]pyrazin-3-yl)methyl)phenyl)amino)-3,4-dihydroquinolin-1(2H)-yl)propan-1-one] | 0.09 | 622 |  |  |  | 7078
CCC(=O)N1c2ccccc2[C@H](Nc2ccc(CCCC(=O)Nc3ccc(N[C@@H]4C[C@H](C)N(C(=O)CC)c5ccccc54)cc3)cc2)C[C@@H]1C [Compound 5r, N,4-Bis(4-(((2S,4R)-2-methyl-1-propionyl-1,2,3,4-tetrahydroquinolin-4-yl)amino)phenyl)butanamide] | 0.53 | 15.7 |  |  |  | 30
CCC(=O)N1c2ccccc2[C@H](Nc2ccc(NC(=O)CCCC(=O)NC3CCC(N[C@@H]4C[C@H](C)N(C(=O)CC)c5ccccc54)CC3)cc2)C[C@@H]1C (stereo partly drawn) [Compound 7o, N^1-((1R,4r)-4-(((2S,4R)-2-Methyl-1-propionyl-1,2,3,4-tetrahydroquinolin-4-yl)amino)cyclohexyl)-N^5-(4-(((2S,4R)-2-methyl-1-propionyl-1,2,3,4-tetrahydroquinolin-4-yl)amino)phenyl)glutaramide] |  |  | 0.53 | 1.15 | 397 | 750
CCC(=O)N1c2ccccc2[C@H](Nc2ccc(NC(=O)N3CCN(C(=O)C4CCC(N[C@@H]5C[C@H](C)N(C(=O)CC)c6ccccc65)CC4)CC3)cc2)C[C@@H]1C (stereo partly drawn) [Compound 7p, 4-((1R,4r)-4-(((2S,4R)-2-Methyl-1-propionyl-1,2,3,4-tetrahydroquinolin-4-yl)amino)cyclohexane-1-carbonyl)-N-(4-(((2S,4R)-2-methyl-1-propionyl-1,2,3,4-tetrahydroquinolin-4-yl)amino)phenyl)piperazine-1-carboxamide] |  |  | 0.38 | 0.79 | 293 | 766
CCC(=O)N1c2ccccc2[C@H](Nc2ccc(NC(=O)CNC(=O)N[C@H]3CC[C@H](N[C@@H]4C[C@H](C)N(C(=O)CC)c5ccccc54)CC3)cc2)C[C@@H]1C [Compound 8j, 2-(3-((1R,4R)-4-(((2S,4R)-2-Methyl-1-propionyl-1,2,3,4-tetrahydroquinolin-4-yl)amino)cyclohexyl)ureido)-N-(4-(((2S,4R)-2-methyl-1-propionyl-1,2,3,4-tetrahydroquinolin-4-yl)amino)phenyl)acetamide] |  |  | 0.29 | 0.5 | 228 | 767
CCC(=O)N1c2ccccc2[C@H](Nc2ccc(C(=O)N3CC(C(=O)N[C@H]4CC[C@H](N[C@@H]5C[C@H](C)N(C(=O)CC)c6ccccc65)CC4)C3)cc2)C[C@@H]1C [Compound 8r, 1-(4-(((2S,4R)-2-Methyl-1-propionyl-1,2,3,4-tetrahydroquinolin-4-yl)amino)benzoyl)-N-((1R,4R)-4-(((2S,4R)-2-methyl-1-propionyl-1,2,3,4-tetrahydroquinolin-4-yl)amino)cyclohexyl)azetidine-3-carboxamide] |  |  | 0.3 | 0.47 | 67.4 | 224
CCC(=O)N1c2ccccc2[C@H](Nc2ccc(NC(=O)CCCC(=O)Nc3ccc(N[C@@H]4C[C@H](C)N(C(=O)CC)c5ccccc54)nc3)cc2)C[C@@H]1C [Compound 10k, N^1-(4-(((2S,4R)-2-Methyl-1-propionyl-1,2,3,4-tetrahydroquinolin-4-yl)amino)phenyl)-N^5-(6-(((2S,4R)-2-methyl-1-propionyl-1,2,3,4-tetrahydroquinolin-4-yl)amino)pyridin-3-yl)glutaramide] | 0.21 | 143 |  |  |  | 672

Continued, in another order:

IC50 (SU-DHL-4 cells; Homo sapiens) [nM] | IC50 (DCAF16 KO SU-DHL-4 cells; Homo sapiens) [nM] | IC50 (SU-DHL-4 cells) [nM] | IC90 (SU-DHL-4 cells) [nM] | IC50 (DCAF16 KO SU-DHL-4 cells) [nM] | SMILES | Activity Attenuation Ratio (DCAF16 KO SU-DHL-4 cells)
0.1 | 951 |  |  |  | CCC(=O)N1c2ccccc2[C@H](Nc2ccc(C(=O)N3CCn4c(-c5ccc(N[C@@H]6C[C@H](C)N(C(=O)CC)c7ccccc76)cc5)cnc4C3)cc2)C[C@@H]1C [Compound 3e, 1-[(2S,4R)-2-Methyl-4-({4-[3-(4-{[(2S,4R)-2-methyl-1-propionyl-1,2,3,4-tetrahydroquinolin-4-yl]amino}phenyl)-5,6,7,8-tetrahydroimidazo[1,2-a]pyrazine-7-carbonyl]phenyl}amino)-3,4-dihydroquinolin-1(2H)-yl]propan-1-one] | 9515
 |  | 0.04 | 0.08 | 37.3 | CCC(=O)N1c2ccccc2[C@H](Nc2ccc(Cn3cc(C(=O)Nc4ccc(N[C@@H]5C[C@H](C)N(C(=O)CC)c6ccccc65)cc4)nn3)cc2)C[C@@H]1C [Compound 5j, 1-(4-(((2S,4R)-2-Methyl-1-propionyl-1,2,3,4-tetrahydroquinolin-4-yl)amino)benzyl)-N-(4-(((2S,4R)-2-methyl-1-propionyl-1,2,3,4-tetrahydroquinolin-4-yl)amino)phenyl)-1H-1,2,3-triazolee-4-carboxamide] | 941
0.003 | 6.8 |  |  |  | CCC(=O)N1c2ccccc2C(Nc2ccc(NC(=O)C#CCNC(=O)c3ccc(N[C@@H]4C[C@H](C)N(C(=O)CC)c5ccccc54)cc3)cc2)CC1C (stereo partly drawn) [Compound 6h, 4-(((2S,4R)-2-Methyl-1-propionyl-1,2,3,4-tetrahydroquinolin-4-yl)amino)-N-(4-((4-((2-methyl-1-propionyl-1,2,3,4-tetrahydroquinolin-4-yl)amino)phenyl)amino)-4-oxobut-2-yn-1-yl)benzamide] | 2250
 |  | 0.09 | 0.24 | 79.7 | CCC(=O)N1c2ccccc2[C@H](Nc2ccc(-c3nnc(CNC(=O)[C@H]4CC[C@H](N[C@@H]5C[C@H](C)N(C(=O)CC)c6ccccc65)CC4)o3)cc2)C[C@@H]1C [Compound 7q, (1R,4R)-4-(((2S,4R)-2-Methyl-1-propionyl-1,2,3,4-tetrahydroquinolin-4-yl)amino)-N-((5-(4-(((2S,4R)-2-methyl-1-propionyl-1,2,3,4-tetrahydroquinolin-4-yl)amino)phenyl)-1,3,4-oxadiazol-2-yl)methyl)cyclohexane-1-carboxamide] | 850
0.51 | 354 |  |  |  | CCC(=O)N1c2ccccc2[C@H](Nc2ccc(-c3nnc(CNC(=O)C4CCN(Cc5cc(O)cc(-c6c(C)noc6C)c5)CC4)o3)cc2)C[C@@H]1C [Compound 12a, 1-(3-(3,5-Dimethylisoxazol-4-yl)-5-hydroxybenzyl)-N-((5-(4-(((2S,4R)-2-methyl-1-propionyl-1,2,3,4-tetrahydroquinolin-4-yl)amino)phenyl)-1,3,4-oxadiazol-2-yl)methyl)piperidine-4-carboxamide] | 693
2.83 | > 10000 |  |  |  | CCC(=O)N1c2ccccc2[C@H](Nc2ccc(NC(=O)C3CN(C(=O)C4CCN(Cc5cc(O)cc(-c6c(C)noc6C)c5)CC4)C3)cc2)C[C@@H]1C [Compound 12b, 1-(1-(3-(3,5-Dimethylisoxazol-4-yl)-5-hydroxybenzyl)piperidine-4-carbonyl)-N-(4-(((2S,4R)-2-methyl-1-propionyl-1,2,3,4-tetrahydroquinolin-4-yl)amino)phenyl)azetidine-3-carboxamide] | >3526
